# Test results: patent US12447171B2 (CELGENE QUANTICEL RESEARCH, INC., priority 2019, dated 2025)
# How the values were obtained:
# Type in all cases: cell-based
# [1] = tested on: MV4-11 cells; experiment: RNASeq analysis of MV4-11 cells; details: MV4-11, 1 μM 5-azacytidine
# Protocol: (§1) After treatment, cells were recovered, washed once in PBS, and flash frozen as cell pellets. Cell pellets were sent to Canopy Biosciences for RNA extraction and library preparation and sequencing. RNA was extracted using the Qiagen RNeasy Mini Kit according to manufacturer's instructions. A modified protocol was used to preserve miRNA species. Total RNA Seq libraries were prepared using 200 ng of total RNA and the NEBNext Ultra II Directional Library prep kit. rRNA depletion was performed using an RNase-H based method (New England Biolabs, Ipswich, MA). MCL1 RNA levels in other cell lines were quantified by RNASeq using standard methods.
# Libraries were multiplexed and sequenced using Illumina HiSeq. All gene counts were then imported into the R/Bioconductor package EdgeR and TMM normalization size factors were calculated to adjust for samples for differences in library size. Ribosomal genes and genes not expressed in the smallest group size minus one samples greater than one count-per-million were excluded from further analysis. Differential expression analysis was then performed to analyze for differences between conditions and the results were filtered for only those genes with Benjamini-Hochberg false-discovery rate adjusted p-values less than or equal to 0.05. Global perturbations in known Gene Ontology (GO) terms and KEGG pathways were detected using the R/Bioconductor package GAGE to test for changes in expression of the reported log 2 fold-changes reported by Limma in each term versus the background log 2 fold-changes of all genes found outside the respective term. The R/Bioconductor package heatmap and Pathview was used to display heatmaps or annotated KEGG graphs across groups of samples for each GO term or KEGG pathway (respectively) with a Benjamini-Hochberg false-discovery rate adjusted p-value less than or equal to 0.05. To find differentially expressed genes, the raw counts were variance stabilized with the R/Bioconductor package DESeq2.
# [2] = tested on: activating transcription factor 3 (ATF3); experiment: ATF3 expression (RNAseq, real-time PCR) in MV4-11 cells
# Protocol: as §1
# Libraries were multiplexed and sequenced using Illumina HiSeq. All gene counts were then imported into the R/Bioconductor package EdgeR and TMM normalization size factors were calculated to adjust for samples for differences in library size. Ribosomal genes and genes not expressed in the smallest group size minus one samples greater than one count-per-million were excluded from further analysis. […] Global perturbations in known Gene Ontology (GO) terms and KEGG pathways were detected using the R/Bioconductor package GAGE to test for changes in expression of the reported log 2 fold-changes reported by Limma in each term versus the background log 2 fold-changes of all genes found outside the respective term. […]
# [3] = tested on: MCL-1; experiment: Western blot of MCL-1 in AML cell lines
# Protocol: Lysates were quantified using a bicinchoninic acid (BCA) kit (Piece/Thermo Fisher, Waltham, MA). 20 to 30 μg protein was resolved on a 4-12% SDS-PAGE gel, transferred to PVDF membranes (80V/90 minute by wet-transfer), and blocked with Oddysey TBS blocking buffer for 1 hour and then probed with appropriate primary antibodies overnight at 4° C. using dilution as recommended by manufacturer. Membranes were washed three times for a total of 30 minutes and then incubated with secondary antibodies at room temperature in the dark for 1 hour. After another three washes, Odyssey infrared imaging system and companion software (LI-COR biosciences, Lincoln, NE, USA) were used to scan immunoblot membranes and to quantify band intensity according to the manufacturer's instructions. The ratio of proteins of interest to loading control in treated samples was normalized to the corresponding ratio in untreated cells. Antibodies used for immunoblotting were purchased from the following sources: BCL-2 (sc-7382), MCL1- (sc-819) from Santa Cruz Biotechnology (Dallas, TX, USA, Bim (2819), caspase-3 (9664) from Cell Signaling Technology; beta-Actin (A2228) from Sigma-Aldrich; DNMTI (ab188453) from AbCam; TRDye 680 goat anti-rabbit and IRDye 800 goat anti-mouse secondary antibodies (#925-68073 and #925-32212) were purchased from Li-COR Biosciences (Lincoln, NE).
smiles,measurement,setting,value
"Nc1ncn([C@@H]2O[C@H](CO)[C@@H](O)[C@H]2O)c(=O)n1 [5-azacytidine, 4-amino-1-B-D-ribofuranosyl-1,3,5-triazin-2(1H)-one]","Mean logFC, Kegg pathway Antigen processing and presentation",[1]; 24 h,−3.39
same,"Mean logFC, Kegg pathway Biosynthesis of unsaturated fatty acids",[1]; 24 h,−3.26
same,"Mean logFC, Kegg pathway Carbon metabolism",[1]; 24 h,−3.35
same,"Mean logFC, Kegg pathway Cardiac muscle contraction",[1]; 24 h,−2.61
same,"Mean logFC, Kegg pathway Cell cycle",[1]; 24 h,−5.75
same,"Mean logFC, Kegg pathway Cellular senescence",[1]; 24 h,−2.69
same,"Mean logFC, Kegg pathway DNA replication",[1]; 24 h,−4.45
same,"Mean logFC, Kegg pathway Fatty acid elongation",[1]; 24 h,−2.87
same,"Mean logFC, Kegg pathway Fatty acid metabolism",[1]; 24 h,−3.43
same,"Mean logFC, Kegg pathway Lysasome",[1]; 24 h,−2.82
same,"Mean logFC, Kegg pathway Metabolic pathways",[1]; 24 h,−5.79
same,"Mean logFC, Kegg pathway Mismatch repair",[1]; 24 h,−2.98
same,"Mean logFC, Kegg pathway Necroptosis",[1]; 24 h,−3.78
same,"Mean logFC, Kegg pathway Oxidative phosphorylation",[1]; 24 h,−7.32
same,"Mean logFC, Kegg pathway Phagosome",[1]; 24 h,−4.13
same,"Mean logFC, Kegg pathway Proteasome",[1]; 24 h,−4.41
same,"Mean logFC, Kegg pathway Protein export",[1]; 24 h,−3.19
same,"Mean logFC, Kegg pathway Protein processing in endoplasmic reticulation",[1]; 24 h,−4.96
same,"Mean logFC, Kegg pathway RNA transport",[1]; 24 h,−3.08
same,"Mean logFC, Kegg pathway Regulation of actin cytoskeleton",[1]; 24 h,−2.46
same,"Mean logFC, Kegg pathway Ribosome",[1]; 24 h,−10.50
same,"Mean logFC, Kegg pathway Spliceasome",[1]; 24 h,−4.10
same,"Mean logFC, Kegg pathway Taste transduction",[1]; 24 h,−2.44
same,"Mean logFC, Kegg pathway Terpenoid backbone biosynthesis",[1]; 24 h,−2.48
same,"Mean logFC, Kegg pathway p53 signaling pathway",[1]; 24 h,−2.42
same,differentially expressed genes,[1]; 24 hours,133
same,KEGG pathways regulated,[1]; 48 hours,No significant differences
same,differentially expressed genes,[1]; 48 hours,226
same,ATF3 expression (real-time PCR),"[2]; MV4-11, 0.3 μM 5-azacytidine, 24 or 48 hours",not sufficient to induce ATF3 expression
same,ATF3 expression increase,"[2]; RNAseq, MV4-11, 1 μM, 48 hours",two-fold
same,start of MCL-1 degradation after treatment,[3]; KG1α,6 h
same,start of MCL-1 degradation after treatment,[3]; MV4-11,6 h
same,MCL-1 degradation,[3]; OCI-AML2,did not lead to any degradation of MCL-1
same,start of MCL-1 degradation after treatment,[3]; THP-1,16 h
same,extent of MCL-1 degradation,"[3]; THP-1, by 24 hours",incomplete degradation by 24 hours
